Test results taken from patent publication US20020010205A1, “N-linked sulfone of heterocyclic thioester hair growth compositions and uses” (GPI NIL HOLDINGS, INC., priority 1998, published 2002).
Entries after “also recorded” stand apart in the source; their conditions may differ.

target: FKBP12 (Homo sapiens, UniProt P62942); assay: Ki test procedure: inhibition of peptidyl-prolyl isomerase (rotamase) activity, chymotrypsin-coupled assay; format: biochemical; conditions: apparent Ki, FKBP rotamase inhibition
Sequence (P62942 whole entry, species assumed): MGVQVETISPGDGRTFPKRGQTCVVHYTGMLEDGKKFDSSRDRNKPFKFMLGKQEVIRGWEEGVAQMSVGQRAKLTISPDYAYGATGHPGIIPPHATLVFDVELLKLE
Source text: The inhibition of the prolyl peptidyl cis-trans isomerase activity of FKBP may be measured as an indicator of this affinity.
Inhibition of the peptidyl-prolyl isomerase (rotamase) activity of the compounds used in the inventive methods and pharmaceutical compositions can be evaluated by known methods described in the literature (Harding et al., Nature, 1989, 341:758-760; Holt et al. J. Am. Chem. Soc., 115:9923-9938). These values are obtained as apparent Ki's and are presented for representative compounds in TABLE I.
The cis-trans isomerization of an alanine-proline bond in a model substrate, N-succinyl-Ala-Ala-Pro-Phe-p-nitroanilide, is monitored spectrophotometrically in a chymotrypsin-coupled assay, which releases para-nitroanilide from the trans form of the substrate. The inhibition of this reaction caused by the addition of different concentrations of inhibitor is determined, and the data is analyzed as a change in first-order rate constant as a function of inhibitor concentration to yield the apparent Ki values.
In a plastic cuvette are added 950 Ml of ice cold assay buffer (25 mM HEPES, pH 7.8, 100 mM NaCl), […] of FKBP (2.5 mM in 10 mM Tris-Cl pH 7.5, 100 mM NaCl, 1 mM dithiothreitol), […] of chymotrypsin (50 mg/ml in 1 mM HCl) and […] of test compound at various concentrations in dimethyl sulfoxide. The reaction is initiated by the addition of 5 mL of substrate (succinyl-Ala-Phe-Pro-Phe-para-nitroanilide, 5 mg/mL in 2.35 mM LiCl in trifluoroethanol).
The absorbance at 390 nm versus time is monitored for 90 seconds using a spectrophotometer and the rate constants are determined from the absorbance versus time data files.

Row | Ki [µM] | SMILES
1 | 0.001 to 0.05 | O=C(SCCc1ccccc1)C1CCCN1S(=O)(=O)c1ccccc1 (stereo not shown) [Compound 1]
2 | 0.051 to 0.2 | O=C(SCCc1ccccc1)C1CCCN1S(=O)(=O)Cc1ccccc1 (stereo not shown) [Compound 2]
3 | 0.051 to 0.2 | Cc1ccc(S(=O)(=O)N2CCCC2C(=O)SCCc2ccccc2)cc1 (stereo not shown) [Compound 3]
4 | 0.051 to 0.2 | COc1ccc(CCCSC(=O)C2CCCN2S(=O)(=O)c2ccccc2)cc1 [Compound 4, 3-(para-Methoxyphenyl)-1-propylmercaptyl(2S)-N-(benzenesulfonyl)pyrrolidine-2-carboxylate]
5 | 0.051 to 0.2 | COc1ccc(CCCSC(=O)C2CCCN2S(=O)(=O)Cc2ccccc2)cc1 [Compound 5, 3-(para-Methoxyphenyl)-1-propylmercaptyl (2S)-N-(α-toluenesulfonyl)pyrrolidine-2-carboxylate]
6 | 0.201 to 0.5 | COc1ccc(CCCSC(=O)C2CCCN2S(=O)(=O)c2ccc(C)cc2)cc1 (stereo not shown) [Compound 6]
7 | 0.051 to 0.2 | O=C(SCCC(c1ccccc1)c1ccccc1)C1CCCN1S(=O)(=O)c1ccccc1 (stereo not shown) [Compound 7]
8 | 0.001 to 0.05 | O=C(SCCC(c1ccccc1)c1ccccc1)C1CCCN1S(=O)(=O)Cc1ccccc1 (stereo not shown) [Compound 8]
9 | 0.001 to 0.05 | Cc1ccc(S(=O)(=O)N2CCCC2C(=O)SCCC(c2ccccc2)c2ccccc2)cc1 (stereo not shown) [Compound 9]
10 | 0.001 to 0.05 | O=C(SCCCCc1ccccc1)C1CCCCN1S(=O)(=O)c1ccccc1 (stereo not shown) [Compound 10]
11 | 0.051 to 0.2 | O=C(SCCCCc1ccccc1)C1CCCCN1S(=O)(=O)Cc1ccccc1 (stereo not shown) [Compound 11]
12 | 0.001 to 0.05 | Cc1ccc(S(=O)(=O)N2CCCCC2C(=O)SCCCCc2ccccc2)cc1 (stereo not shown) [Compound 12]
13 | 0.001 to 0.05 | COc1cc(S(=O)(=O)N2CCCCC2C(=O)SCCCCc2ccccc2)cc(OC)c1OC (stereo not shown) [Compound 13]
14 | 0.001 to 0.05 | O=C(SCCCCc1ccccc1)C1CCCCN1S(=O)(=O)C1CCCCC1 (stereo not shown) [Compound 14]
15 | 0.001 to 0.05 | O=C(SC(CCCc1ccccc1)CCCc1ccccc1)C1CCCCN1S(=O)(=O)c1ccccc1 (stereo not shown) [Compound 15]
16 | 0.051 to 0.2 | O=C(SC(CCCc1ccccc1)CCCc1ccccc1)C1CCCCN1S(=O)(=O)Cc1ccccc1 (stereo not shown) [Compound 16]

system: not given; assay: not given; conditions: topical, but not oral, application; cited from earlier work

Row | SMILES | stimulation of hair growth
17 | C=CC[C@@H]1/C=C(\C)C[C@H](C)C[C@H](OC)[C@H]2O[C@@](O)(C(=O)C(=O)N3CCCC[C@H]3C(=O)O[C@H](/C(C)=C/[C@@H]3CC[C@@H](O)[C@H](OC)C3)[C@H](C)[C@@H](O)CC1=O)[C@H](C)C[C@@H]2OC [FK506] | stimulates hair growth in a dose-dependent manner

system: C57 black 6 mice; assay: In vivo hair generation test, Experiment B (shaved C57 Black 6 mice, topical, relative hair growth index); conditions: one micromole per milliliter topical, three times per week, 14 days after initiation of treatment
Experimental: Care was taken not to nick or cause abrasion to the underlying dermal layers. The animals were in anagen growth phase when shaved. […] The animals were treated three times per week, and hair growth was evaluated 14 days after initiation of treatment.

Row | SMILES | hair growth (relative hair growth index, FIG. 5)
18 | O=C(SCCCc1ccccc1)[C@@H]1CCCN1S(=O)(=O)Cc1ccccc1 [GPI 1312] | dramatic hair growth

system: C57 black 6 mice; assay: In vivo hair generation test, Experiment A (shaved C57 black 6 mice, topical); conditions: 30 μM topical in 20% propylene glycol, 3 applications over 5 days, after six weeks
Source text: Care was taken not to nick or cause abrasion to the underlaying dermal layers. The animals were in anagen growth phase, as indicated by the pinkish color of the skin. […] Hair growth was quantitated by the percent of shaved area covered by new hair growth during this time period.

Row | SMILES | hair regrowth in shaved area
19 | CCC(C)(C)C(=O)C(=O)N1CCC[C@H]1C(=O)OCCCc1cccnc1 [GPI 1046, 3-(3-pyridyl)-1-propyl (2s)-1-(3,3-dimethyl-1,2-dioxopentyl)-2-pyrrolidinecarboxylate] | essentially complete hair regrowth; also recorded: essentially, complete hair regrowth
